This is an account of results in US20260250289A1, “BICYCLIC HETEROCYCLES AND THEIR USE AS WRN INHIBITORS” (Novartis AG, priority 2022, published 2026).

The subject of one experiment is DLD1-WRN-KO cells. In words: Proliferation assay DLD1-WRN-KO (CellTiterGlo, off-target effects). Particulars: 96 hours, geometric mean of at least 2. Format: cell-based. As for the experimental part:
The WRN-knockdown insensitive colon carcinoma cell line DLD-1 (RRID: CVCL_0248) was obtained from the Korean Cell Line Bank (KCLB), and used to generate a derivative in which the endogenous WRN gene copies were knocked out by CRISPR-mediated editing using standard CRISPR methods. The resulting cell line, DLD1-WRN-KO, was used to assess potential off-target compound effects. […]
Three replicate plates were prepared for each compound treatment condition. In addition, one plate (termed “day 0”) was prepared to quantify the number of viable cells at the time of compound addition. Following overnight incubation at 37° C. in a humidified 5% CO2 atmosphere, eight 3-fold serial dilutions of a given compound stock (obtained at a concentration of 10 mM in DMSO and stored at 4° C.) were dispensed directly into each of the triplicate assay plates using a HP 300D non-contact Digital Dispenser (TECAN). The final concentration of DMSO was normalized to 0.1% in all wells. 96 hours after compound addition, cellular ATP levels as a surrogate for cell viability was assessed following addition of 50 microliters CellTiterGlo (Promega Cat #G7573) reagent and luminescence quantification on a MPLEX multi-mode plate-reader (TECAN) following a 10 minute incubation at room temperature. The number of viable cells in the “day 0” plate were quantified identically on the day of compound addition.
For data analysis, the assay background signal that was determined in wells containing medium, but no cells, was subtracted from all other data points prior to further calculations. The extent of growth inhibition and potential cell kill was assessed by comparing the ATP levels (measured using CellTiterGlo, Promega) in compound-treated cells with those present at the time of compound addition. […] 100%, 0% and −100% signify absence of growth inhibition, growth stasis, and complete cell kill, respectively. Compound concentrations leading to half-maximal growth inhibition (GI50) and residual cell viability at the highest tested compound concentration (Data (cmax), expressed in percent) were routinely calculated. Data analysis can also be carried out using commercially available software designed to derive IC50 values using 4-parameter fits (e.g. GraphPad Prism, XL fit). The reported GI50 values are the geometrical means of at least 2 independent replicates.
On the technique in general: In ATP-based viability assays light output follows the ATP content of the culture.

For experiment [1], the target named is T1, WRN helicase (aa N517-P1238) (Homo sapiens, UniProt Q14191).
T1 construct: The core helicase motif of the WRN protein (aa N517-P1238) was produced for this assay; His (N); ZZ (N); 3C protease cleavage site (N); made in house; host or cells: Sf21 insect cells (baculovirus; virus and BIICs made in SF9)
In words: WRN ATPase assay (DNA dependent ATP hydrolysis, ADP-Glo). Format: biochemical. Particulars: 3 hours pre-incubation, 300 micromolar ATP, FLAP26 DNA; geometric mean of at least 2. The text has this: An ATPase assay was set up to measure the DNA dependent ATP hydrolysis activity of WRN helicase. This assay was used also to assess the inhibition properties of compounds of the invention on DNA dependent WRN ATPase activity.
The core helicase motif of the WRN protein (aa N517-P1238) was produced for this assay (protein production as described above). […] The ADP-Glo assay kit (Promega, Madison, WI) allowing the quantification of ADP produced in ATP hydrolysis reactions was used for setting up this assay.
Time course experiments were first performed in order to determine the best enzymatic assay conditions (including buffer conditions, reaction time and concentrations of protein, ATP and DNA substrates). A typical reaction consists of 10 nM WRN protein, 0.2 nM FLAP26, and 300 micromolar ATP in the following assay buffer: 30 mM Tris pH7.5, 2 mM MgCl2, 0.02% BSA, 50 mM NaCl, 0.1% pluronic F127 prepared in DNAse free water.
To evaluate the inhibition properties of compounds of the invention, serial dilutions were prepared in DMSO (10 half log dilutions from a 10 mM DMSO solution). […] The reaction was stopped with the addition of 5 microliters of the first ADP-Glo reagent and incubated for one hour to remove the excess amount of ATP. Afterwards, 10 microliters of ATP detection reagent was added and incubated for an additional hour before reading. Luminescence output was recorded using Tecan 1000 reader, with 5 minutes delay before reading. Each concentration of compound was tested in duplicates in the assay plate.
Following normalization of activity values for the wells to % inhibition (% inhibition=[(high control-sample)/(high control-low control)]×100), IC50 fitting was carried out from the duplicate determinations present on each plate according to [4]. Data analysis can also be carried out using commercially available software designed to derive IC50 values using 4-parameter fits (e.g. GraphPad Prism, XL fit). The reported IC50 values are the geometrical means of at least 2 independent replicates.
On the technique in general: ADP-Glo turns the ADP formed in a reaction into a luminescent signal.

Some results are limits rather than exact numbers.

T1 sequence (Q14191 517-1238): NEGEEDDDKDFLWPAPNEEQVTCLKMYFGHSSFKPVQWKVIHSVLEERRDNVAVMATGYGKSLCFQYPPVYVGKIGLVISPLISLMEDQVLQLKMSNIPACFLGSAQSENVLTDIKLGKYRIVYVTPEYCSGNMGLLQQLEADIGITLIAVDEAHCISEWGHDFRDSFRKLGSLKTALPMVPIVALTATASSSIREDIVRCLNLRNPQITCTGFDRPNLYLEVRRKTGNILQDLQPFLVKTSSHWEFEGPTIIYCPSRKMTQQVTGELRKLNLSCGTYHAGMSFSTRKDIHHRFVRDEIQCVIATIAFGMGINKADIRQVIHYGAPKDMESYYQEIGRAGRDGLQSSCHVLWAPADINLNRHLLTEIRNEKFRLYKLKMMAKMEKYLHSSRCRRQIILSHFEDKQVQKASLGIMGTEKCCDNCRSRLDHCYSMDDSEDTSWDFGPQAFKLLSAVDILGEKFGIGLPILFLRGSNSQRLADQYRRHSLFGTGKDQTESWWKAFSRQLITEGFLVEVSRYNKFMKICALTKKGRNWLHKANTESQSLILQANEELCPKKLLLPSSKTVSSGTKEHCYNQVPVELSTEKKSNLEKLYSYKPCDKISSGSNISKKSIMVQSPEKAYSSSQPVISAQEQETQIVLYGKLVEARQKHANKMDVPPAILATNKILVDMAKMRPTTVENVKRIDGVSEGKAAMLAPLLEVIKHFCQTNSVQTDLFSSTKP

Turning to `CC(=O)N1CCN(c2nc3n(CC(=O)Nc4ccc(Cl)cc4)c(C)c(N4CCN(C(=O)c5nc[nH]c5C#N)CC4)c(=O)n3n2)CC1` [Example 7, 2-(2-(4-acetylpiperazin-1-yl)-6-(4-(5-cyano-1H-imidazole-4-carbonyl)piperazin-1-yl)-5-methyl-7-oxo-[1,2,4]triazolo[1,5-a]pyrimidin-4(7H)-yl)-N-(4-chlorophenyl)acetamide], the GI50 (in general, the concentration giving 50% growth inhibition) in the experiment with DLD1-WRN-KO cells was greater than 10 µM. In experiment [1], the IC50 (as a rule, the concentration that gives 50% inhibition) was found to be 0.04 µM.
In the experiment with DLD1-WRN-KO cells, `CC(=O)N1CCN(c2nc3n(CC(=O)Nc4ccc(Cl)cc4)c(C)c(N4CCN(C(=O)c5n[nH]c(=O)[nH]5)CC4)c(=O)n3n2)CC1` [Example 8, 2-(2-(4-acetylpiperazin-1-yl)-5-methyl-7-oxo-6-(4-(5-oxo-4,5-dihydro-1H-1,2,4-triazole-3-carbonyl)piperazin-1-yl)-[1,2,4]triazolo[1,5-a]pyrimidin-4(7H)-yl)-N-(4-chlorophenyl)acetamide] yielded a GI50 greater than 10 µM. The molecule also showed an IC50 in experiment [1] of 0.05 µM.
The molecule `CC(=O)N1CCN(c2nc3n(CC(=O)Nc4ccc(Cl)cc4)c(C)c(N4CCN(C(=O)c5cnon5)CC4)c(=O)n3n2)CC1` [Example 9, 2-(6-(4-(1,2,5-oxadiazole-3-carbonyl)piperazin-1-yl)-2-(4-acetylpiperazin-1-yl)-5-methyl-7-oxo-[1,2,4]triazolo[1,5-a]pyrimidin-4(7H)-yl)-N-(4-chlorophenyl)acetamide] gave a GI50 in the experiment with DLD1-WRN-KO cells greater than 10 µM. The molecule also returned an IC50 in experiment [1] of 0.08 µM.
Taken in the same sequence, the figures for `CC(=O)N1CCN(c2nc3n(CC(=O)Nc4ccc(Cl)cc4)c(C)c(N4CCN(C(=O)c5[nH]c(=O)[nH]c(=O)c5N)CC4)c(=O)n3n2)CC1` [Example 10, 2-(2-(4-acetylpiperazin-1-yl)-6-(4-(5-amino-2,6-dioxo-1,2,3,6-tetrahydropyrimidine-4-carbonyl)piperazin-1-yl)-5-methyl-7-oxo-[1,2,4]triazolo[1,5-a]pyrimidin-4(7H)-yl)-N-(4-chlorophenyl)acetamide] were greater than 10 µM and 0.09 µM.
For `CC(=O)N1CCN(c2c(C)n(CC(=O)Nc3ccc(Cl)c(C(F)(F)F)c3)c3nc(C4=CCN(C(=O)OC(C)(C)C)CC4)nn3c2=O)CC1` [Example 74, tert-butyl 4-(6-(4-acetylpiperazin-1-yl)-4-(2-((4-chloro-3-(trifluoromethyl)phenyl)amino)-2-oxoethyl)-5-methyl-7-oxo-4,7-dihydro-[1,2,4]triazolo[1,5-a]pyrimidin-2-yl)-5,6-dihydropyridine-1(2H)-carboxylate] the same measures were 0.6 µM and 0.2 µM.
Taken in the same sequence, the figures for `CC(=O)N1CCN(c2c(C)n(CC(=O)Nc3ccc(Cl)c(Cl)c3)c3nc(C4=CCN(C(=O)OC(C)(C)C)CC4)nn3c2=O)CC1` [Example 75, tert-butyl 4-(6-(4-acetylpiperazin-1-yl)-4-(2-((3,4-dichlorophenyl)amino)-2-oxoethyl)-5-methyl-7-oxo-4,7-dihydro-[1,2,4]triazolo[1,5-a]pyrimidin-2-yl)-5,6-dihydropyridine-1(2H)-carboxylate] were 0.9 µM and 0.2 µM.
Take `CC(=O)N1CCN(c2c(C)n(CC(=O)Nc3ccc(Cl)c(Cl)c3)c3nc(-c4ccc(CN(C)C(=O)CCN=[N+]=[N-])cc4)nn3c2=O)CC1` [Example 86, N-(4-(6-(4-acetylpiperazin-1-yl)-4-(2-((3,4-dichlorophenyl)amino)-2-oxoethyl)-5-methyl-7-oxo-4,7-dihydro-[1,2,4]triazolo[1,5-a]pyrimidin-2-yl)benzyl)-3-azido-N-methylpropanamide]: the GI50 in the experiment with DLD1-WRN-KO cells is greater than 10 µM. In experiment [1], this molecule yielded an IC50 of 0.07 µM.
Turning to `CC(=O)N1CCN(c2c(C)n(CC(=O)Nc3ccc(Cl)c(Cl)c3)c3nc(C4=CCN(C(=O)OC5CC/C=C/CCC5)CC4)nn3c2=O)CC1` (stereo not drawn) [Example 93, (E)-cyclooct-4-en-1-yl 4-(6-(4-acetylpiperazin-1-yl)-4-(2-((3,4-dichlorophenyl)amino)-2-oxoethyl)-5-methyl-7-oxo-4,7-dihydro-[1,2,4]triazolo[1,5-a]pyrimidin-2-yl)-3,6-dihydropyridine-1(2H)-carboxylate], it took 5 µM to inhibit growth in the experiment on DLD1-WRN-KO cells by half (GI50). In experiment [1], this molecule returned an IC50 of 0.7 µM.
Taken in the same sequence, the figures for `CC(=O)N1CCN(c2c(C)n(CC(=O)Nc3ccc(C(F)(F)F)cc3)c3nc(N4CCCCC4)nn3c2=O)CC1` [Example 111, 2-(6-(4-acetylpiperazin-1-yl)-5-methyl-7-oxo-2-(piperidin-1-yl)-[1,2,4]triazolo[1,5-a]pyrimidin-4(7H)-yl)-N-(4-(trifluoromethyl)phenyl)acetamide] were greater than 10 µM and 0.2 µM.
For `CCOC(=O)C#Cc1nc2n(CC(=O)Nc3ccc(C(F)(F)F)cc3)c(C)c(N3CCN(C(C)=O)CC3)c(=O)n2n1` [Example 116, ethyl 3-(6-(4-acetylpiperazin-1-yl)-5-methyl-7-oxo-4-(2-oxo-2-((4-(trifluoromethyl)phenyl)amino)ethyl)-4,7-dihydro-[1,2,4]triazolo[1,5-a]pyrimidin-2-yl)propiolate] the same measures were 5 µM and 0.5 µM.
For the molecule `CC(=O)N1CCN(c2c(C)n(CC(=O)Nc3ccc(C(F)(F)F)cc3)c3nc(C4=CCC5(CCO5)CC4)nn3c2=O)CC1` (stereo not drawn) [Example 117, 2-(6-(4-acetylpiperazin-1-yl)-5-methyl-7-oxo-2-(1-oxaspiro[3.5]non-6-en-7-yl)-[1,2,4]triazolo[1,5-a]pyrimidin-4(7H)-yl)-N-(4-(trifluoromethyl)phenyl)acetamide], the GI50 in the experiment with DLD1-WRN-KO cells was greater than 10 µM. Further, in experiment [1], it took 0.6 µM to reach half-maximal inhibition (IC50).
`CC(=O)N1CCC(c2c(C)n(CC(=O)Nc3ccc(C(F)(F)F)cc3)c3nc(-c4ccccc4)nn3c2=O)CC1` [Example 143, 2-(6-(1-acetylpiperidin-4-yl)-5-methyl-7-oxo-2-phenyl-[1,2,4]triazolo[1,5-a]pyrimidin-4(7H)-yl)-N-(4-(trifluoromethyl)phenyl) acetamide] displayed a GI50 with DLD1-WRN-KO cells greater than 10 µM.
For the molecule `COc1cc(F)cc(C(=O)N2CCN(c3c(C)n(CC(=O)Nc4ccc(C(F)(F)F)cc4)c4nc(C5=CCOCC5)nn4c3=O)CC2)c1N` [Example 153, 2-(6-(4-(2-amino-5-fluoro-3-methoxybenzoyl)piperazin-1-yl)-2-(3,6-dihydro-2H-pyran-4-yl)-5-methyl-7-oxo-[1,2,4]triazolo[1,5-a]pyrimidin-4(7H)-yl)-N-(4-(trifluoromethyl)phenyl)acetamide], the GI50 in the experiment on DLD1-WRN-KO cells came to 5 µM. Also, the midpoint of inhibition in experiment [1], the IC50, lay at 0.1 µM.
Taken in the same sequence, the figures for `Cc1c(N2CCN(C(=O)c3n[nH]c4ccccc34)CC2)c(=O)n2nc(C3=CCOCC3)nc2n1CC(=O)Nc1ccc(C(F)(F)F)cc1` [Example 154, 2-(6-(4-(1H-indazole-3-carbonyl)piperazin-1-yl)-2-(3,6-dihydro-2H-pyran-4-yl)-5-methyl-7-oxo-[1,2,4]triazolo[1,5-a]pyrimidin-4(7H)-yl)-N-(4-(trifluoromethyl)phenyl)acetamide] were 8 µM and 0.1 µM.
